# Laboratory results as given in patent US20250312339A1, “METHODS AND COMPOSITIONS COMPRISING A SHP2 INHIBITOR AND A PD-LI BINDING ANTAGONIST” (Genentech, Inc., priority 2022, published 2025).
# “Also recorded” adds a separate entry of the source.
# Legend:
# [1] = tested on: EMT6 mammary carcinoma; test: Anti-tumor efficacy, EMT6 mammary carcinoma in BALB/c mice; assay type: in vivo
# Method: Agents. Compound 1 was formulated in 50 mM Sodium Citrate buffer, pH3.0 at a concentration of […]. Anti-PD-L1 mAbs (Mu IgG2a anti-PD-L1, hereafter referred to as anti-PD-L1) and anti-gp120 isotype control (Mu IgG1 anti-gp120; hereafter referred to as Isotype Control) were formulated as a solution in buffer of 20 mM Histidine Acetate, 240 mM Sucrose, 0.02% Tween 20™, pH 5.5. An oral-dosed vehicle control was 50 mM Sodium Citrate buffer, pH3.0.
# Cell Lines. The EMT6 mammary carcinoma cell line was cultured in vitro, harvested in log-phase growth, and resuspended in Hank's Balanced Salt Solution (HBSS) containing Matrigel™ (BD Biosciences; San Jose, CA) at a 1:1 ratio by volume for in vivo inoculation. Animals were each inoculated with 0.1×10^6 cells in the mammary gland (5, left) in a volume of […].
# Mice tumor models. 10.6 weeks old Balb/c mice bearing tumors in the range of 141-196 mm^3 were evenly distributed into 4 study groups of 10 mice each. The mean tumor volume across all groups was 165 mm^3 at the start of dosing. The mean starting weight was 19.94 g. All concentrations were calculated based on a mean body weight of 20 g and adjusted for 10% body weight loss or gain. Mice in the various groups received the treatment regimens described in Table 1. Mice were dosed for a total of 28 days or until euthanized at first sign of morbidity or if body weight loss was >20% of their weight at the start of administration.
# The study extended beyond 28 days and following the cessation of treatment to check for the durability of response and ended at day 102 wherein remaining mice were all euthanized.
# Tumor and Body Weight Measurements. Tumor volumes were measured in two perpendicular dimensions (length and width) using Ultra Cal-IV calipers (model 54-10-111; Fred V. Fowler Co.; Newton, MA) and tumor volume was calculated according to the following formula: […]
# Tumors that regressed by >50% relative to their starting volume during the study were categorized as partial responders (PRs) while tumors with a final tumor volume corresponding to full regression were categorized as complete responders (CRs). Animal body weights were measured using an Adventura Pro AV812 scale (Ohaus Corporation; Pine Brook, NJ) and percent change in body weight for each group was calculated and plotted (see FIG. 4). Percent weight change was calculated using the following formula: […]
# Growth analysis and group comparisons. […] Analyses and comparisons of tumor growth were performed using a package of customized functions in R (Version 3.6.2); R Foundation for Statistical Computing; Vienna, Austria, which integrates software from open source packages (e.g., lme4, mgcv, gamm4, multcomp, settings, and plyr) and several packages from tidyverse (e.g., magrittr, dplyr, tidyr, and ggplot2) (Forrest et al.; Cancer Res 2020; 80(22):5089-97). All raw tumor volume measurements from 0 (minimum) to 8 mm^3 (maximum value) were judged to reflect complete tumor absence and were converted to 8 mm^3 prior to natural log transformation. A generalized additive mixed model (GAMM) was then applied to describe the changes in transformed tumor volumes over time using regression splines with automatically generated spline bases. This approach addresses both repeated measurements from the same study subjects and moderate dropouts before the end of the study. […]
# [2] = tested on: EGFR-amplified esophageal squamous cell carcinoma (KYSE-520); test: Human tumor xenograft model, EGFR-amplified esophageal squamous cell carcinoma; assay type: in vivo; details: oral administration, single agent
# Excerpt: (§1) Compound 1 has also been tested for in vivo anti-tumor activity in multiple xenograft models.
# [3] = Events associated with administration of Compound 1; assay type: in vivo; details: reversible and monitorable events
# Excerpt: Risks Associated with Compound 1.
# [4] = tested on: KRAS-mutant NSCLC (NCI-H358); test: Human tumor xenograft model, KRAS-mutant NSCLC; assay type: in vivo; details: oral administration, single agent
# Excerpt: as §1
# [5] = tested on: EMT6 mammary tumors; test: Tumor immuno-profiling by flow cytometry after 7 days of treatment; assay type: in vivo, mice
# Method: Tumor Immuno-profiling. Anti-tumor immunity was evaluated in EMT6 mammary tumors by flow cytometric immuno-profiling of tumor cells and tumor-infiltrating immune cells the tumor after 7-days of treatment with either vehicle and isotype control antibodies, single agent Compound 1 (60 mg/kg, PO, QD), anti-PD-L1 antibodies (10 mg/kg, IV, first dose, then 5 mg/kg, IP, twice per week), or the combination with of Compound 1 and anti-PD-L1.
# The activation status of the TILs was assessed by assessing the expression of cytokines and effector molecules, including interferon gamma (IFNg), tumor necrosis factor alpha (TNFa) and granzyme B (GZMB) from tumor-derived T cells under restimulation conditions using PMA/ionomycin (FIG. 6A). […] There was also an increase of the frequency of CD8+ T cells expressing GZMB in tumors from mice treated with Compound 1 and anti-PD-L1 relative to the vehicle group (p=0.0137). (FIG. 6A). The polyfunctionality of tumor-infiltrating CD8^+ T cells (expressing IFNg and TNFa) was increased when mice were treated with Compound 1 alone or in combination with anti-PD-L1 antibodies relative to the vehicle group (p=0.0008 and p=0.0011, respectively). Markers of T cell activation and exhaustion were also assessed to determine if SHP2 inhibition by Compound 1 alone or in combination with anti-PD-L1 antibodies altered the phenotype of CD8+ T cells in the tumor.
# [6] = tested on: panel of kinases, receptors, ion channels, and transporters; test: Selectivity panel
# Method: (§2) Compound 1 is a potent allosteric inhibitor of recombinant human SHP2, with inhibitory concentration of 50% (IC50) of 0.7 nM. It has been characterized in numerous nonclinical cancer models.
# [7] = target: T1, recombinant human SHP2 (Homo sapiens, UniProt Q06124); test: Inhibition of recombinant human SHP2; assay type: biochemical; details: allosteric inhibitor
# T1 sequence (Q06124 1-593): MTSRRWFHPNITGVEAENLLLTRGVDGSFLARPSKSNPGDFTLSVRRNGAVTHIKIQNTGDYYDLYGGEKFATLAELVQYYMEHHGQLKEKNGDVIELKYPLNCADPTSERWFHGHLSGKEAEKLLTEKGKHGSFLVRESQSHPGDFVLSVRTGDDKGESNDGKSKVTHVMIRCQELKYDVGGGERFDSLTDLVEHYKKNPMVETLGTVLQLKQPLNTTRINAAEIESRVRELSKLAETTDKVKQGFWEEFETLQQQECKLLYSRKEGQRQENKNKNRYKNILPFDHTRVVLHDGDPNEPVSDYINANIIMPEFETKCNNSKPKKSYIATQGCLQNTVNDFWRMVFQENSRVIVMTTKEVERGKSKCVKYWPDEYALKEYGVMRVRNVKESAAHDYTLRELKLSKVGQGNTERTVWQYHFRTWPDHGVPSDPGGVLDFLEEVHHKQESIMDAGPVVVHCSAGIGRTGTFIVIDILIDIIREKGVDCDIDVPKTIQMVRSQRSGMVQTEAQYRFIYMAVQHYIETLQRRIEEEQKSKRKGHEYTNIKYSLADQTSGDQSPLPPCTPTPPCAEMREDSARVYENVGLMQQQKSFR
# Method: as §2
# [8] = Anti-proliferative effect in cancer cell lines, 2D and anchorage-independent 3D formats; assay type: cell-based; details: numerous cell lines, 2D or 3D assays; read-out: IC50, proliferation
# Excerpt: The anti-proliferative effect of Compound 1 has been assessed in multiple cancer cell lines using 2D and anchorage-independent 3D formats.
# [9] = tested on: SHP2 (ERKT/2 phosphorylation at Thr202/Tyr204) in EGFR-amplified KYSE-520 cells; test: SHP2 inhibition in cells by level of ERK phosphorylation; assay type: cell-based; details: Homo sapiens
# Method: as §2
# [10] = Nonclinical safety studies; assay type: in vivo
# Excerpt: Risks associated with MAPK-Pathway Class Inhibitors. Administration of MAPK-pathway inhibitors has been associated with cardiomyopathy, retinopathy, Cardiomyopathy, CPK increase, thromboembolic events, Phototoxicity, and Reproductive Toxicity.
# [11] = in vivo; cited from earlier work
# [12] = tested on: Fc receptors; details: cited from earlier work
molecule,measurement,setting,value
"N[C@@H]1c2ccccc2OC12CCN(c1cnc3c(N4CCCc5ncccc54)n[nH]c3n1)CC2 [Compound 1, (R)-1′-(3-(3,4-dihydro-1,5-naphthyridin-1(2H)-yl)-1H-pyrazolo[3,4-b]pyrazin-6-yl)-3H-spiro[benzofuran-2,4′-piperidin]-3-amine]",Legacy % TGI,"[1]; AUC-based, relative to vehicle controls, Compound 1 60 mg/kg PO QD, anti-PD-L1 10 mg/kg IV then 5 mg/kg IP twice weekly",47%
same,Anti-tumor efficacy (in words),"[1]; EMT6 syngeneic tumor model, Compound 1 60 mg/kg QD",no efficacy
same,EOS CR (complete responders at end of study),"[1]; end of study day 102, after cessation of 28-day dosing, 10 mice per group",0 (0.0%)
same,"Growth Contrast, LN (GR)","[1]; relative to vehicle controls, Compound 1 60 mg/kg PO QD, anti-PD-L1 10 mg/kg IV first dose then 5 mg/kg IP twice weekly",−0.033 LN
same,PR (partial responders),"[1]; tumors regressed by >50% relative to starting volume, 10 mice per group",0 (0.0%)
same,"Anti-tumor efficacy, KYSE-520 xenograft",[2],significant anti-tumor efficacy
same,Events associated with administration,[3],"Peripheral Edema, Myelosuppression (e.g., Thrombocytopenia, Anemia), Gastrointestinal Toxicities (e.g., Diarrhea, Nausea, and Vomiting), Elevation of Hepatic Transaminase, and Rash"
same,"Anti-tumor efficacy, NCI-H358 xenograft",[4],significant anti-tumor efficacy
same,IFNg expression on tumor-derived CD8+ T cells,"[5]; PMA/ionomycin restimulation, vs vehicle, p=0.0002 (Compound 1), p=0.0001 (combination)",increase
same,TNFa expression on tumor-derived CD8+ T cells,"[5]; PMA/ionomycin restimulation, vs vehicle, p=0.0016 (Compound 1), p=0.0035 (combination)",increase
same,MFI of PD-L1 expression on tumor cells (CD45 negative),"[5]; vs vehicle group, 7 days, p=0.0127 (Compound 1), p=0.0018 (combination)",significant increase
same,MFI of MHC-I expression on tumor cells (CD45 negative),"[5]; vs vehicle group, 7 days, p=0.0354 (Compound 1), p=0.0044 (combination)",significant increase
same,Polyfunctionality of tumor-infiltrating CD8+ T cells (co-expression of IFNg and TNFa),"[5]; vs vehicle group, p=0.0008 (Compound 1), p=0.0011 (combination)",increase
same,Frequency of M1 population of macrophages,"[5]; vs vehicle group, p=0.0033 (Compound 1), p=0.0162 (combination)",increase
same,M2 population of macrophages,"[5]; vs vehicle group, p=0.0036 (Compound 1), p=0.0007 (combination)",decrease
same,Frequency of CD8 T cell population in tumor microenvironment,"[5]; vs vehicle group, p=0.0058 (Compound 1), p=0.008 (combination)",increase
same,Frequency of MDSCs in tumor,"[5]; vs vehicle group, p=0.0058 (Compound 1), p=0.0083 (combination)",reduction; also recorded: reduced
same,Frequency of CD4 T cell population in tumor microenvironment,"[5]; vs vehicle group, p=0.0067 (Compound 1), p=0.002 (combination)",increase
same,Frequency of TAMs in tumor,"[5]; vs vehicle group, p=0.0072 (Compound 1), p=0.0098 (combination)",reduction; also recorded: reduced
same,Frequency of NK cells in tumor microenvironment,"[5]; vs vehicle group, p=0.013 (Compound 1), p=0.024 (combination)",increase
same,Selectivity against panel,[6],selectively inhibits SHP2
same,IC50,[7],0.7 nM
same,IC50,[8],< 1 nM
same,IC50,[9],1.3 nM
same,Nonclinical toxicity findings,[10],"did not show evidence of cardiac, pulmonary, renal, thromboembolic, or ophthalmic toxicities"
"Atezolizumab: Fc-engineered, humanized, non-glycosylated IgG1 kappa immunoglobulin that binds PD-L1 (SEQ ID NO: 1 and 2)",Tolerability,[11],generally well tolerated
same,Binding to Fc receptors,[12],minimal binding to Fc receptors
